Patent US20250313860A1, “EXPRESSION OF EXOGENOUS PROTEINS IN DONOR PLATELETS TREATED WITH LIPID NANOPARTICLES” (THE UNIVERSITY OF BRITISH COLUMBIA, priority 2022, published 2025)

Legend:
human platelets = experiment: Platelet responsiveness to agonists ADP and thrombin (CD62P flow cytometry); assay type: cell-based; details: transfected and control untreated platelets, FIG. 3A
Protocol: (§1) Platelets untreated or treated with CL4H6 POPC LNP were activated after 2 h with 0.1 U mL-1 thrombin from human plasma (MilliporeSigma Canada Ltd, Oakville, ON) or 10 μM Chrono-Par® ADP reagent (Chrono-Log, Havertown, PA) in Tyrode's-HEPES buffer pH 7.4 (134 mM NaCl, 2.9 mM KCl, 0.34 mM NaH2PO4, 10 mM HEPES, 5 mM D-glucose). After 4 h LNP treatment, platelets were collected for flow cytometry and the remaining sample was centrifuged at 250×g for 10 min, with the pellet and supernatant fractions collected for luciferase assay.
Platelet responsiveness to agonists ADP or thrombin was measured by flow cytometry staining using PE-conjugated mouse anti-human CD62P labeling, as described in the Materials and Methods.

[1] = test system: platelets transfected with mRNA-LNP; experiment: Intracellular and extracellular NanoLuc after agonist activation of transfected platelets; assay type: cell-based, human; details: after agonist stimulation of transfected platelets; for intracellular NanoLuc level (cell pellet): FIG. 4D; for extracellular NanoLuc level (supernatant): FIG. 4E
Protocol: as §1
Platelets were transfected with mRNA-LNP encoding NanoLuc, followed by activation with agonists ADP or thrombin. Intracellular and extracellular protein was separated by centrifugation, and enzymatic activity assays were used to measure exogenous protein levels in both fractions as described in the Materials and Methods.

[2] = test system: platelets transfected with mRNA-LNP; experiment: Cycloheximide treatment of mRNA-LNP transfected platelets; assay type: cell-based, human
Description: Platelets were transfected with mRNA encoding nanoluciferase (NanoLuc) encapsulated in LNP formulation using ALC0315 and DOPC immediately preceding treatment with cycloheximide, followed by enzymatic assays of nanoluciferase activity, and activation by flow cytometry using PE-conjugated mouse anti-human CD62P labeling, as described in the Materials and Methods.

| Compound | increase of CD62P levels by agonist (human platelets) | intracellular NanoLuc level (cell pellet) [1] | extracellular NanoLuc level (supernatant) [1] | exogenous protein synthesis in transfected platelets ([2]; LNP with ALC0315 and DOPC, FIG. 5A) | mRNA-LNP uptake in transfected platelets ([2]; presence or absence of cycloheximide, FIG. 5B) |
| --- | --- | --- | --- | --- | --- |
| Nc1ncnc2c1ncn2[C@@H]1O[C@H](COP(=O)(O)OP(=O)(O)O)[C@@H](O)[C@H]1O [ADP] | mildly | unchanged | unchanged |  |  |
| C[C@@H]1C[C@@H]([C@H](O)CC2CC(=O)NC(=O)C2)C(=O)[C@@H](C)C1 [cycloheximide] |  |  |  | inhibited | no statistically significant effect |
| thrombin | substantially | decreased | decreased |  |  |
